The values that follow come from patent US7943608B2, “Diazepinoes” (Merck Patent GmbH, priority 2005, dated 2011).

Each structure is given as a SMILES string.

For the assay, the target named is T1, His6-PDK1(Δ1-50) (Homo sapiens, UniProt O15530).
T1 construct: His6 (N)
T1 sequence (O15530 51-556): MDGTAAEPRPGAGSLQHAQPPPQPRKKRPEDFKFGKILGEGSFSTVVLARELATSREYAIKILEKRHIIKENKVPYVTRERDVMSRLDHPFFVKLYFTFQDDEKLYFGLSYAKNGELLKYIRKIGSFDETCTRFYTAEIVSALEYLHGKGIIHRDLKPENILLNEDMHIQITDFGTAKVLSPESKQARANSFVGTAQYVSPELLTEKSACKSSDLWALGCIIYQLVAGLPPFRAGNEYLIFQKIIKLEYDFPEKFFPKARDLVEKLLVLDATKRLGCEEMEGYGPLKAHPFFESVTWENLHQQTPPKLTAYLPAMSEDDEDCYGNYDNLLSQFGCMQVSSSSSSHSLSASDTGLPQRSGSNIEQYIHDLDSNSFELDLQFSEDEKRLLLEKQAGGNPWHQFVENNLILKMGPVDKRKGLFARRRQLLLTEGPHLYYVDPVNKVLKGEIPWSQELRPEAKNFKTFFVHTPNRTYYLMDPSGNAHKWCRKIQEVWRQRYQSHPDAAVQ
Put plainly: Inhibition of PDK1 (IC50), 384-well flashplate kinase assay. Type of assay: biochemical. The conditions noted are these: 4 μM ATP, 400 nM PDKtide, second part of Table 1 (compounds 32-124). The procedure: Inhibition of PDK1 (IC50)
The kinase assay can be carried out as a 384-well flashplate assay. 3.4 nM His6-PDK1(Δ1-50), 400 nM PDKtide (biotin-bA-bA-[…]) and 4 μM ATP (with 0.2 μCi of 33P-ATP/well) are incubated at […] for 60 min in a total volume of 50 μl (50 mM TRIS, 10 mM Mg acetate, 0.1% of mercaptoethanol, 0.02% of Brij35, 0.1% of BSA, pH 7.5) with or without test substance (5-10 concentrations). The reaction is stopped using 25 μl of 200 mM EDTA solution, filtered with suction after 30 min at room temperature, and the wells are washed with 3 times 100 μl of 0.9% NaCl solution. The nonspecific content of the kinase reaction (blank) is determined using 100 nM staurosporine. Radioactivity is measured using a Topcount scintillation counter (PerkinElmer, USA). IC50 values are calculated using the RS1 computer program.
Regarding `CCOc1ccc2c(c1)NC(=O)c1cnc(N(C)C3CCN(C)CC3)nc1N2` [Compound 64], the IC50 is 430 nM.

`CCOc1ccc2c(c1)NC(=O)c1cnc(NC3CCN(C)CC3)nc1N2` [Compound 65] gave an IC50 of 520 nM.

The molecule `Cc1ccc2c(c1C)Nc1nc(NC3CCN(C)CC3)ncc1C(=O)N2` [Compound 66] registered an IC50 of 3400 nM.

Consider `CN1CCC(N(C)c2ncc3c(n2)Nc2ccc(C(F)(F)F)cc2NC3=O)CC1` [Compound 67], for which the IC50 turned out to be 1300 nM.

With `CN1CCC(N(C)c2ncc3c(n2)Nc2cc(N)ccc2NC3=O)CC1` [Compound 68], half-maximal inhibition (IC50) was put at 510 nM.

Take `CN1CCC(N(C)c2ncc3c(n2)Nc2cc(NC(=O)NC4CCCC4)ccc2NC3=O)CC1` [Compound 69]: the IC50 came out at 650 nM.

As to `CC(C)Cn1cc(-c2ccc3c(c2)NC(=O)c2cnc(N(C)C4CCN(C)CC4)nc2N3)cn1` [Compound 70], the midpoint of inhibition, the IC50, lay at 110 nM.

In turn, `CN(c1ncc2c(n1)Nc1ccc(C(C)(C)C)cc1NC2=O)C1CCNCC1` [Compound 71] showed an IC50 of 430 nM. This IC50 lies about 3.9-fold higher than the previous one.

The molecule `Cc1cc2c(cc1C)Nc1nc(N(C)C3CCN(C(=O)CCN(C)C)CC3)ncc1C(=O)N2` [Compound 72] came in with an IC50 of 8100 nM.

In the case of `Cc1cc2c(cc1C)Nc1nc(N(C)C3CCN(CCN(C)C)CC3)ncc1C(=O)N2` [Compound 73], it took 3900 nM to reach half-maximal inhibition (IC50).

In the case of `Cc1cc2c(cc1C)Nc1nc(N(C)C3CCNCC3)ncc1C(=O)N2` [Compound 74], the IC50 turned out to be 320 nM.

`CC(C)NC(=O)Nc1ccc2c(c1)Nc1nc(N(C)C3CCN(C)CC3)ncc1C(=O)N2` [Compound 75] displayed an IC50 of 960 nM.

The molecule `CCNC(=O)Nc1ccc2c(c1)Nc1nc(N(C)C3CCN(C)CC3)ncc1C(=O)N2` [Compound 76] had an IC50 of 1300 nM. The IC50 values of the last two molecules are within 1.5-fold of each other.

Take `CCC(C)NC(=O)Nc1ccc2c(c1)Nc1nc(N(C)C3CCN(C)CC3)ncc1C(=O)N2` (centres unmarked) [Compound 77]: the IC50 was 940 nM.

The molecule `CN1CCC(N(C)c2ncc3c(n2)Nc2ccc(NC(=O)NC4CCCC4)cc2NC3=O)CC1` [Compound 78] returned an IC50 of 150 nM. This IC50 is about 6.3-fold lower than that of the molecule before.

Molecule `CC(C)NC(=O)Nc1cccc2c1Nc1nc(N(C)C3CCN(C)CC3)ncc1C(=O)N2` [Compound 79] returned an IC50 of 6000 nM.

On to `CN1CCC(N(C)c2ncc3c(n2)Nc2ccc(N)cc2NC3=O)CC1` [Compound 80], for which it took 190 nM to reach half-maximal inhibition (IC50).

Turning to `CCCNC(=O)Nc1ccc2c(c1)Nc1nc(N(C)C3CCN(C)CC3)ncc1C(=O)N2` [Compound 81], it took 420 nM to reach half-maximal inhibition (IC50).

The molecule `CN1CCC(N(C)c2ncc3c(n2)Nc2cc(NC(=O)NC4CCCCC4)ccc2NC3=O)CC1` [Compound 82] gave an IC50 of 750 nM.

Molecule `CN1CCC(N(C)c2ncc3c(n2)Nc2ccc(NC(=O)NC(C)(C)C)cc2NC3=O)CC1` [Compound 83] displayed an IC50 of 200 nM.

Molecule `CN1CCC(N(C)c2ncc3c(n2)Nc2c(NC(=O)NC(C)(C)C)cccc2NC3=O)CC1` [Compound 84] returned an IC50 of 5500 nM. Compared with the last molecule, the IC50 is about 28-fold higher.

For the molecule `CCNC(=O)Nc1ccc2c(c1)NC(=O)c1cnc(N(C)C3CCN(C)CC3)nc1N2` [Compound 85], the IC50 amounted to 280 nM.

For `CCCNC(=O)Nc1ccc2c(c1)NC(=O)c1cnc(N(C)C3CCN(C)CC3)nc1N2` [Compound 86], the IC50 worked out at 280 nM.

Molecule `CCC(C)NC(=O)Nc1ccc2c(c1)NC(=O)c1cnc(N(C)C3CCN(C)CC3)nc1N2` (centres unmarked) [Compound 87] had an IC50 of 230 nM. The IC50 values of the last two molecules are within 1.5-fold of each other.

With `CN1CCC(N(C)c2ncc3c(n2)Nc2ccc(NC(=O)NC4CCCCC4)cc2NC3=O)CC1` [Compound 88], the IC50 came out at 150 nM.

Consider `CN1CCC(N(C)c2ncc3c(n2)Nc2ccc(NC(=O)Nc4cccs4)cc2NC3=O)CC1` [Compound 89], for which the IC50 was determined as 200 nM.

Molecule `CN1CCC(N(C)c2ncc3c(n2)Nc2cc(NC(=O)Nc4cccs4)ccc2NC3=O)CC1` [Compound 90] yielded an IC50 of 290 nM.

Consider `CCC(C)NC(=O)Nc1cccc2c1Nc1nc(N(C)C3CCN(C)CC3)ncc1C(=O)N2` (centres unmarked) [Compound 92], for which the IC50 amounted to 7800 nM.

`CN1CCC(N(C)c2ncc3c(n2)Nc2c(NC(=O)NC4CCCCC4)cccc2NC3=O)CC1` [Compound 93] came in with an IC50 of 3500 nM.

The molecule `CN1CCC(N(C)c2ncc3c(n2)Nc2cc(NC(=O)Nc4ccsc4)ccc2NC3=O)CC1` [Compound 94] registered an IC50 of 160 nM.

The molecule `Cc1noc(C)c1NC(=O)Nc1ccc2c(c1)Nc1nc(N(C)C3CCN(C)CC3)ncc1C(=O)N2` [Compound 95] registered an IC50 of 950 nM. This IC50 lies about 5.9-fold higher than the previous one.

In turn, `CN1CCC(N(C)c2ncc3c(n2)Nc2ccc(NC(=O)Nc4ccsc4)cc2NC3=O)CC1` [Compound 99] yielded an IC50 of 120 nM.

With `Cc1noc(C)c1NC(=O)Nc1ccc2c(c1)NC(=O)c1cnc(N(C)C3CCN(C)CC3)nc1N2` [Compound 100], the IC50 amounted to 220 nM. This IC50 lies about 1.8-fold higher than the previous one.

Molecule `CN1CCC(N(C)c2ncc3c(n2)Nc2c(NC(=O)Nc4ccsc4)cccc2NC3=O)CC1` [Compound 101] came in with an IC50 of 340 nM. This IC50 is about 1.5-fold higher than that of the molecule before.

On to `Cc1noc(C)c1NC(=O)Nc1cccc2c1Nc1nc(N(C)C3CCN(C)CC3)ncc1C(=O)N2` [Compound 102], for which the IC50 worked out at 3400 nM. Against the preceding molecule, the IC50 is about 10-fold higher.
